From patent US12157730B2, “Heteroaryl derivative, method for producing same, and pharmaceutical composition comprising same as effective component” (VORONOI INC., priority 2019, dated 2024) come the findings set out here.

The assay addresses T1, Ba/F3 cell EGFR Exon20 ins NPH (Homo sapiens, UniProt P00533, INS773NPH).
T1 construct: expressed in transfected cells; host or cells: Ba/F3
The assay is described as follows: Ba/F3 cell proliferation suppression, EGFR Exon20 ins NPH. Format: cell-based. Conditions: GI50 class; Ba/F3 cell line with NPH inserted at Exon20 of EGFR; 72 hours. In outline: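 After 72 h compound exposure (twelve 3-fold steps, 0.3 nM–50 um final), live cells were measured by CellTiter-Glo luminescence and growth expressed as % of control to derive GI50. Cells were seeded at 3000–5000 per well a day earlier; Ba/F3 medium contained IL-3; three repeats.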
Consider `C=CC(=O)Nc1cc(Nc2cc(N3OCC[C@@H]3c3cccc(C#N)c3)ncn2)c(OC)cc1N(C)CCN(C)C` [compound 392, N-(5-((6-((R)-3-(3-cyanophenyl)isoxazolidine-2-yl)pyrimidine-4-yl)amino)-2-((2-(dimethylamino)ethyl)(methyl)amino)-4-methoxyphenyl) acrylamide], for which the “Ba/F3 (NPH) Activity” value is “A (GI50 < 50 nM)”.

In the case of `C=CC(=O)Nc1cc(Nc2cc(N3OCC[C@@H]3c3cc(F)ccc3F)ncn2)c(OC)cc1N1CCC(N2CCC(F)(F)CC2)CC1` [compound 817, N-(2-(4,4-difluoro-[1,4'-bipiperidine]-1'-yl)-5-((6-((R)-3-(2,5-difluorophenyl)isoxazolidine-2-yl)pyrimidine-4-yl)amino)-4-methoxyphenyl) acrylamide], the “Ba/F3 (NPH) Activity” value is recorded as “A (GI50 < 50 nM)”.

As to `C=CC(=O)Nc1cc(Nc2cc(N3OCC[C@@H]3c3cccc(C)c3F)ncn2)c(OC)cc1N1CCOCC1` [compound 844, N-(5-((6-((R)-3-(2-fluoro-3-methylphenyl)isoxazolidine-2-yl)pyrimidine-4-yl)amino)-4-methoxy-2-morpholinophenyl) acrylamide], the “Ba/F3 (NPH) Activity” value is “A (GI50 < 50 nM)”.

As for `C=CC(=O)Nc1cc(Nc2cc(N3OCC[C@@H]3c3ccc(Cl)c(F)c3)ncn2)c(OC)cc1N1CCC(N2C[C@H]3C[C@@H]2CO3)CC1` [Example 256, N-(2-(4-((1R,4R)-2-oxa-5-azabicyclo[2.2.1]heptane-5-yl)piperidine-1-yl)-5-((6-((R)-3-(4-chloro-3-fluorophenyl)isoxazolidine-2-yl)pyrimidine-4-yl)amino)-4-methoxyphenyl) acrylamide], the “Ba/F3 (NPH) Activity” value was “A (GI50 < 50 nM)”.

In the case of `C=CC(=O)Nc1cc(Nc2cc(N3OCC[C@@H]3c3cccc(Cl)c3Cl)ncn2)c(OC)cc1N1CCC(N2CCN(CC)CC2)CC1` [compound 569, N-(5-((6-((R)-3-(2,3-dichlorophenyl)isoxazolidine-2-yl)pyrimidine-4-yl)amino)-2-(4-(4-ethylpiperazine-1-yl)piperidine-1-yl)-4-methoxyphenyl) acrylamide], the “Ba/F3 (NPH) Activity” value is recorded as “A (GI50 < 50 nM)”.

Take `C=CC(=O)Nc1cc(Nc2cc(N3OCC[C@H]3c3c(F)cccc3F)ncn2)c(OC)cc1N1CCN(CC)CC1` [compound 895, N-(5-((6-((S)-3-(2,6-difluorophenyl)isoxazolidine-2-yl)pyrimidine-4-yl)amino)-2-(4-ethylpiperazine-1-yl)-4-methoxyphenyl) acrylamide]: the “Ba/F3 (NPH) Activity” value was “C (500 nM ≤ GI50 < 5000 nM)”.

As for `C=CC(=O)Nc1cc(Nc2cc(N3OCC[C@@H]3c3cc(F)ccc3F)ncn2)c(OC)cc1N1CCC(N2C[C@H](C)N(C3CC3)C[C@@H]2C)CC1` [Example 171, N-(2-(4-((2S,5S)-4-cyclopropyl-2,5-dimethylpiperazine-1-yl)piperidine-1-yl)-5-((6-((R)-3-(2,5-difluorophenyl)isoxazolidine-2-yl)pyrimidine-4-yl)amino)-4-methoxyphenyl) acrylamide], the “Ba/F3 (NPH) Activity” value is recorded as “A (GI50 < 50 nM)”.

For the compound `C=CC(=O)Nc1cc(Nc2cc(N3OCC[C@@H]3c3cccc(Cl)c3Cl)ncn2)c(OC)cc1N1CCN(C2CC2)[C@H](C)C1` [compound 564, N-(2-((R)-4-cyclopropyl-3-methylpiperazine-1-yl)-5-((6-((R)-3-(2,3-dichlorophenyl)isoxazolidine-2-yl)pyrimidine-4-yl)amino)-4-methoxyphenyl) acrylamide], the “Ba/F3 (NPH) Activity” value is recorded as “A (GI50 < 50 nM)”.

With `C=CC(=O)Nc1cc(Nc2cc(N3OCC[C@@H]3c3ccc(F)cc3F)ncn2)c(OC)cc1-n1cnc(C)c1` [compound 386, N-(5-((6-((R)-3-(2,4-difluorophenyl)isoxazolidine-2-yl)pyrimidine-4-yl)amino)-4-methoxy-2-(4-methyl-1H-imidazole-1-yl)phenyl)acrylamide], the “Ba/F3 (NPH) Activity” value is “B (50 nM ≤ GI50 < 500 nM)”.
